Test results taken from patent US20120289612A1, “Composite Material and Method for Producing the Same” (HOUSE FOODS CORPORATION, priority 2010, published 2012).

Test system: acylase
Assay: Enzyme addition: decomposition of capsaicin by acylase, HPLC
Type: physicochemical
Settings: acylase 0.05 u/ml, 50 mM tris buffer, 37° C., capsaicin 0.0028%, relative to beginning of shaking
Experimental: Each of the samples obtained in Reference Example 2 and Reference Comparative Example 2 was diluted 10-fold with a 50 mM tris buffer (capsaicin concentration: 0.0028%). To this liquid, an acylase was added at a concentration of 0.05 u/ml. The mixture was shaken in a constant-temperature water bath at 37° C. to allow the reaction of the enzyme to proceed.
Meanwhile, as Reference Example, a capsaicin reagent (capsaicin content: 95% or more) manufactured by SIGMA was diluted with a 50 mM tris buffer such that the capsaicin concentration was the same as that (0.0028%) in Reference Example 2 and Reference Comparative Example 2. To this liquid, an acylase was added at a concentration of 0.05 u/ml. The mixture was shaken in a constant-temperature water bath at 37° C. in the same manner as in Reference Example 2 and Reference Comparative Example 2, to allow the reaction of the enzyme to proceed.
To 2 ml of each sample in which the reaction of the enzyme was allowed to proceed for 0 (at the beginning of the shaking) minutes, 30 minutes, or 60 minutes, 3 ml of water was added, and thus the volume thereof was adjusted to 5 ml. Moreover, 1 ml of 2.5 N NaOH was added thereto, followed by heating in boiling water at 100° C. for 10 minutes. After the heating, 20 ml of methanol was added thereto. […] For the HPLC measurement, a fluorescence detector was used. […]

COc1cc(CNC(=O)CCCC/C=C/C(C)C)ccc1O [Reference Example, capsaicin]
ratio of capsaicin remaining after the enzymatic reaction for 60 minutes: 2.0%
